ChEMBL document CHEMBL1152560, “Substituted 2-arylbenzothiazoles as kinase inhibitors: hit-to-lead optimization” (Bioorg Med Chem, 2009)

Tests used:
[1] = target: T1, Discoidin domain-containing receptor 2 (Homo sapiens) (UniProt Q16832); assay: Residual activity of DDR2 at 1 uM by microplate scintillation counting
T1 sequence (whole entry): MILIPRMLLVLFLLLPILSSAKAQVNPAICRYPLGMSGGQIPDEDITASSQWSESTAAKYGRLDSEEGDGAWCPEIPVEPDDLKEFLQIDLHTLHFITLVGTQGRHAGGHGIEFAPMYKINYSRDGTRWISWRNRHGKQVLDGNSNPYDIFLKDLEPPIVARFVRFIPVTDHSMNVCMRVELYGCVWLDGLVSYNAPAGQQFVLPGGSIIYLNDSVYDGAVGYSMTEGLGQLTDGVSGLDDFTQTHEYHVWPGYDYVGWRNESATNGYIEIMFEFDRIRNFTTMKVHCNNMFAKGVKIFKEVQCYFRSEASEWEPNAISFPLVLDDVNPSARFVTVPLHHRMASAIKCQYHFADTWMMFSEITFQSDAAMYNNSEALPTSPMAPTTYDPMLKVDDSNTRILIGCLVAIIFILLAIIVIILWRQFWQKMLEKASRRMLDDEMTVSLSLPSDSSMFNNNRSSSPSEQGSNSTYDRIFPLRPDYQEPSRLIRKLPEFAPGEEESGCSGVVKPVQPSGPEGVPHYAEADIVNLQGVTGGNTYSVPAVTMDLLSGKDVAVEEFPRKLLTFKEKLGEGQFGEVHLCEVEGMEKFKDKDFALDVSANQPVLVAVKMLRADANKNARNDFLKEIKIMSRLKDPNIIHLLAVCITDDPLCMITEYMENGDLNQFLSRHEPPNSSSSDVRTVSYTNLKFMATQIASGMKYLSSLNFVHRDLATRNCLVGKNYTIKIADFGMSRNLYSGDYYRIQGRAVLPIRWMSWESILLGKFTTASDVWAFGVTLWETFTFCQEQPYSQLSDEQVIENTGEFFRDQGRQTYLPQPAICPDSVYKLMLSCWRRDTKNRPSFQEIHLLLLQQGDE

[2] = target: Protein kinase C delta type (Homo sapiens) (UniProt Q05655); assay: Residual activity of PKCdelta at 1 uM by microplate scintillation counting
[3] = target: T2, Inhibitor of nuclear factor kappa-B kinase subunit alpha (Homo sapiens) (UniProt O15111); assay: Residual activity of IKKalpha at 1 uM by microplate scintillation counting
T2 sequence (whole entry): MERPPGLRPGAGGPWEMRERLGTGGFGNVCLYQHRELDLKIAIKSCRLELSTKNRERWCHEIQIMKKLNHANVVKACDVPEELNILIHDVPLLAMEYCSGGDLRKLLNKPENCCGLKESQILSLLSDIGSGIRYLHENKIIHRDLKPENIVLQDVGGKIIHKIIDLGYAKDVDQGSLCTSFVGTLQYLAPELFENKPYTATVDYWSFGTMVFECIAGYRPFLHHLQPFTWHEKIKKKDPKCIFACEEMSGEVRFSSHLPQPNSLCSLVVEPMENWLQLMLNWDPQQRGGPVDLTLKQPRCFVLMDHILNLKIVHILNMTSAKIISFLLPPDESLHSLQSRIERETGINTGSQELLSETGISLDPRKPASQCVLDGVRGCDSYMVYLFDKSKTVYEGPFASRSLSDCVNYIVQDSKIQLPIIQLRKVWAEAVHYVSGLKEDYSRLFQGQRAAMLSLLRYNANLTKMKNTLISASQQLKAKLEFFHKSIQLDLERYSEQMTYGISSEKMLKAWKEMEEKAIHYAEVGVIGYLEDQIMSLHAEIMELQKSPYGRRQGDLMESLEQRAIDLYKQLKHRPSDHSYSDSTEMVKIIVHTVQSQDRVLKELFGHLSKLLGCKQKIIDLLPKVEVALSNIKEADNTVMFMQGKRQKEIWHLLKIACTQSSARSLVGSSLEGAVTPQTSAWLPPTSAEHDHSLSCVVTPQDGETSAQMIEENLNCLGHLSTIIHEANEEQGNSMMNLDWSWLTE

[4] = target: T3, Tyrosine-protein kinase JAK3 (Homo sapiens) (UniProt P52333); assay: Residual activity of JAK3 at 10 uM by microplate scintillation counting
T3 sequence (whole entry): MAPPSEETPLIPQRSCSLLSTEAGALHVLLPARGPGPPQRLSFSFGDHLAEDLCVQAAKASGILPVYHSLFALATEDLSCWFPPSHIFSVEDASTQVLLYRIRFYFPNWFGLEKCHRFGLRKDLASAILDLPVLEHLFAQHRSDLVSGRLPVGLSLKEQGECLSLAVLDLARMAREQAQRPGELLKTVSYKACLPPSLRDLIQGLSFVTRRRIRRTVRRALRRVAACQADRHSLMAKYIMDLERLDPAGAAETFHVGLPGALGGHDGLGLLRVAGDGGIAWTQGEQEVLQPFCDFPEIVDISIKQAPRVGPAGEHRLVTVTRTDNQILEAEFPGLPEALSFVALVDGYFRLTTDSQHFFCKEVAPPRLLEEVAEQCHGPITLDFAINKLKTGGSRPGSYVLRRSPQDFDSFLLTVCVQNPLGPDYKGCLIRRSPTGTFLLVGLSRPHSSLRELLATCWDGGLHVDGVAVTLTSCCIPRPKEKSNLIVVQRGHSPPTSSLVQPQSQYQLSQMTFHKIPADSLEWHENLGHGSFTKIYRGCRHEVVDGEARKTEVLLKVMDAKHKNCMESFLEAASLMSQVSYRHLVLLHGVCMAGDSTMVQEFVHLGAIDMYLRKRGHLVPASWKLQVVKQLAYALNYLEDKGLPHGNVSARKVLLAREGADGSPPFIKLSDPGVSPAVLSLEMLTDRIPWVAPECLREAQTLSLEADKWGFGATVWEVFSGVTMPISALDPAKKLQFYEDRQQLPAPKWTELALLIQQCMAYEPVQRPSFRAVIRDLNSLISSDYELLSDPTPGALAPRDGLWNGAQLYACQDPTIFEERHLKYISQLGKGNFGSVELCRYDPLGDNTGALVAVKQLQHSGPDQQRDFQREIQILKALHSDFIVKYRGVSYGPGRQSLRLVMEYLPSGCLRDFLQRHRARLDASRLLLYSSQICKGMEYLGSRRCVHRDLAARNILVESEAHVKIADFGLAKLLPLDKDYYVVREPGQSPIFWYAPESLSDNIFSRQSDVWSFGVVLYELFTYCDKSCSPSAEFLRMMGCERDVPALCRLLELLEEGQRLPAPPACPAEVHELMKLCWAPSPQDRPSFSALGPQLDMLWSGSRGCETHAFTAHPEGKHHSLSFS

[5] = target: Mitogen-activated protein kinase 10 (Homo sapiens) (UniProt P53779); assay: Residual activity of JNK3 at 10 uM by microplate scintillation counting
[6] = target: Serine/threonine-protein kinase PAK 3 (Homo sapiens) (UniProt O75914); assay: Residual activity of PAK3 at 0.1 uM by microplate scintillation counting
[7] = target: Vascular endothelial growth factor receptor 3 (Homo sapiens, UniProt P35916); assay: Residual activity of VEGFR3 at 10 uM by microplate scintillation counting
Sequence of Vascular endothelial growth factor receptor 3 (P35916 whole entry): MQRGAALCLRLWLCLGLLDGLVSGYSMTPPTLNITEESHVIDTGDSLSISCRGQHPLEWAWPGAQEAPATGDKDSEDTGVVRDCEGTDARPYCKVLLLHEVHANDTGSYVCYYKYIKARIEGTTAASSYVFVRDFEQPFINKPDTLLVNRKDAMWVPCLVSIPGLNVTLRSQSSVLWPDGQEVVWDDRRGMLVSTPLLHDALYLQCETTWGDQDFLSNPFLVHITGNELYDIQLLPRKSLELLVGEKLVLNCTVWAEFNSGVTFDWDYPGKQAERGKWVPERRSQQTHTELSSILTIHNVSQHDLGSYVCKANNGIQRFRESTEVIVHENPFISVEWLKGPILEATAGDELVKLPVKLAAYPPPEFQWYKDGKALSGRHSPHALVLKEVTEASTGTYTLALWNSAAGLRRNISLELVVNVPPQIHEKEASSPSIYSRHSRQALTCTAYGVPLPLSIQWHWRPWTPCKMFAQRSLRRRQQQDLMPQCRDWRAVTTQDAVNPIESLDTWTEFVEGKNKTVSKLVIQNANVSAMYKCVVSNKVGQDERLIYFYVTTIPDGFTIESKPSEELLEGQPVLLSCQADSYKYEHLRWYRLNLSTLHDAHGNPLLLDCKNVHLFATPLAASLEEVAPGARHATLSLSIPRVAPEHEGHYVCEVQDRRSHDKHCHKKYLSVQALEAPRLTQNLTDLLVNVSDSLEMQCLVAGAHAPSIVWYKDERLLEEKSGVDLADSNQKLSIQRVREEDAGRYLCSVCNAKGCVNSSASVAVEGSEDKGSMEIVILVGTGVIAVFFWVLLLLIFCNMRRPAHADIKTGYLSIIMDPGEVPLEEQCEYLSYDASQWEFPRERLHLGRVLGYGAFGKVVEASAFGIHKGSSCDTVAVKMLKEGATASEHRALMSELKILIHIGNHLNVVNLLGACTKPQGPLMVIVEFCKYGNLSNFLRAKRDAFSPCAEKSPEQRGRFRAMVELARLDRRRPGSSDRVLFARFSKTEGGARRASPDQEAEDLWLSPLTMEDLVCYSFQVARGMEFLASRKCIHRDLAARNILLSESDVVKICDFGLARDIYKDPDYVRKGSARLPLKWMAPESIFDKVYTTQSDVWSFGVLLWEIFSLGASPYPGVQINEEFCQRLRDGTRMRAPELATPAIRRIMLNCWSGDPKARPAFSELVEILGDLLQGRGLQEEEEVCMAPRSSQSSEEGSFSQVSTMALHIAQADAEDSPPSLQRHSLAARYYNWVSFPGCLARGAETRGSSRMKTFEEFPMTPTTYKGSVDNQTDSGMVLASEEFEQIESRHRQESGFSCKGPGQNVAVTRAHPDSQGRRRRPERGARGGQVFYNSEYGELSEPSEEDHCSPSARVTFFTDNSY

Sequence of Mitogen-activated protein kinase 10 (Homo sapiens) (P53779 whole entry): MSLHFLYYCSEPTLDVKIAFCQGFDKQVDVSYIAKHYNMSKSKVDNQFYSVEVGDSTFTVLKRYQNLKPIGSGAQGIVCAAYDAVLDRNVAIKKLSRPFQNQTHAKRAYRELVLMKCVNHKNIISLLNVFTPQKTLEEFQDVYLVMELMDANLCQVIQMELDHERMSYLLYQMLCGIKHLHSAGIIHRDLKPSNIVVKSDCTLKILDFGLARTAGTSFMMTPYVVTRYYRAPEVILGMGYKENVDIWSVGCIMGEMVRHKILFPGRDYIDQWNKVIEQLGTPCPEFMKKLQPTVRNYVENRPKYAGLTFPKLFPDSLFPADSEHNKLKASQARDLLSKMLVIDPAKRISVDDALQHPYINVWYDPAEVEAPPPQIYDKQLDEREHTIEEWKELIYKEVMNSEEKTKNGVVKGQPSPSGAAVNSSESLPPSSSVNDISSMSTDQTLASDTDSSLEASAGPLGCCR
Sequence of Protein kinase C delta type (Homo sapiens) (Q05655 whole entry, looked up): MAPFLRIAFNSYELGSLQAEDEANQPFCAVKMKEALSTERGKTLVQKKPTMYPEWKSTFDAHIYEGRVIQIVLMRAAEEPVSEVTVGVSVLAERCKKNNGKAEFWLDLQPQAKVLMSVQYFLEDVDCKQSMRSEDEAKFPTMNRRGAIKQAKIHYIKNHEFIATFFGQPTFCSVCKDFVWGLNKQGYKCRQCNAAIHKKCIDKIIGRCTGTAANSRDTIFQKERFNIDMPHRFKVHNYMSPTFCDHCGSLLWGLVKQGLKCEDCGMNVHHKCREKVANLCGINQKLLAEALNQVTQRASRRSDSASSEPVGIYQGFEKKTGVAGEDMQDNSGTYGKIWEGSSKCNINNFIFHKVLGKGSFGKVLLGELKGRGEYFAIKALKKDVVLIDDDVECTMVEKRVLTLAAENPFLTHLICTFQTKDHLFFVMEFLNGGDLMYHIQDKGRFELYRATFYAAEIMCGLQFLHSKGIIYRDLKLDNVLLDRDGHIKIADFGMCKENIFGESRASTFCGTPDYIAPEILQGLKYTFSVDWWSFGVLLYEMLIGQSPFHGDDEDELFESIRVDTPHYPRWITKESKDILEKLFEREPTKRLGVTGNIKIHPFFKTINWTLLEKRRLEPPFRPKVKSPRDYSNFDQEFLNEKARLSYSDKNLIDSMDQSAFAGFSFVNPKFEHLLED
Sequence of Serine/threonine-protein kinase PAK 3 (Homo sapiens) (O75914 whole entry, looked up): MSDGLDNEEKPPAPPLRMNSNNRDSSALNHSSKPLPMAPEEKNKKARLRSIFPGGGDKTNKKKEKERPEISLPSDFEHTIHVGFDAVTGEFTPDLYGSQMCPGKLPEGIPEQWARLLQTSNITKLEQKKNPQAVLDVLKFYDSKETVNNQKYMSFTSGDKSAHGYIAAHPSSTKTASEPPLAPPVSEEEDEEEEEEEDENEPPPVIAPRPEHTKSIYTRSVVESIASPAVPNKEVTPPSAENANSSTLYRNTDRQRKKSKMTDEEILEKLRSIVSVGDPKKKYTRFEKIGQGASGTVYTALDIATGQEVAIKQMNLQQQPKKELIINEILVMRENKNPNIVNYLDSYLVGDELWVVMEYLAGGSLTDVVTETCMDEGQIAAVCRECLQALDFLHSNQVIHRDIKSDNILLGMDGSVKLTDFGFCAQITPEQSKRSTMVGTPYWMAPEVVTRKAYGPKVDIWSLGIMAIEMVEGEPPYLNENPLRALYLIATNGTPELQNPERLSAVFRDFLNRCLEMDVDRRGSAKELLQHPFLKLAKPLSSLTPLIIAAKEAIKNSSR

Row | residual activity [1] [%] | residual activity [2] [%] | residual activity [3] [%] | residual activity [4] [%] | residual activity [5] [%] | residual activity [6] [%] | residual activity [7] [%] | SMILES
1 | 99 | 93 | 95 | 68 | 84 | 95 | 6 | COc1cc2c(Oc3ccc(-c4nc5ccccc5s4)cc3)ncnc2cc1OCCCN1CCCC1
2 | 88 | 94 | 99 | 53 | 45 | 97 | 4 | COc1cc2c(Oc3ccc(-c4nc5ccccc5s4)cc3F)ncnc2cc1OCCCN1CCN(C)CC1
3 | 79 | 103 | 98 | 63 | 52 | 95 | 4 | COc1cc2c(Oc3ccc(-c4nc5ccccc5s4)cc3)ncnc2cc1OCCCN1CCN(C)CC1
